Test results taken from ChEMBL document CHEMBL4482309, “Discovery of the first selective c5a2 receptor (c5l2/c5ar2) ligands” (2017).
The source made the active and inactive calls. No cut-off for these calls is given here.

How the values were obtained:
[1] = target: C5a anaphylatoxin chemotactic receptor 2 (Homo sapiens) (UniProt Q9P296); experiment: Agonist activity at C5a2 receptor in HMDM assessed as inhibition of LPS-induced IL-6 release at 10 to 100 uM by ELISA
[2] = target: C5a anaphylatoxin chemotactic receptor 2 (Homo sapiens) (UniProt Q9P296); experiment: Agonist activity at C5a2 receptor in HMDM assessed as inhibition of LPS-induced TNFalpha release at 100 uM in presence of C5a1 antagonist PMX53 by ELISA
[3] = target: C5a anaphylatoxin chemotactic receptor 2 (Homo sapiens) (UniProt Q9P296); experiment: Partial agonist activity at human C5a2 receptor assessed as induction of beta-arrestin-2 recruitment by DiscoverX Path Hunter kit based assay
[4] = target: T1, Mitogen-activated protein kinase; ERK1/ERK2 (Homo sapiens) (UniProt P27361+P28482); experiment: Agonist activity at C5a2 receptor in HMDM assessed as inhibition of C5a-induced induction of ERK1/2 phosphorylation in HMDM at 100 uM pre-incubated for 30 mins before C5a addition and measured after 10 mins
[5] = target: C5a anaphylatoxin chemotactic receptor 2 (Homo sapiens) (UniProt Q9P296); experiment: Agonist activity at C5a2 receptor in HMDM assessed as inhibition of LPS-induced TNFalpha release at 0.1 to 100 uM by ELISA
[6] = target: T1, Mitogen-activated protein kinase; ERK1/ERK2 (Homo sapiens); experiment: Induction of ERK1/2 phosphorylation in HMDM at 100 uM incubated for 30 mins; format: protein assay
[7] = system: Mus musculus; experiment: Inhibition of C5a-induced neutrophil mobilization in iv dosed C5aR2 (-/-) mouse; format: functional, organism-based
[8] = system: Mus musculus; experiment: Inhibition of C5a-induced neutrophil mobilization in iv dosed wild type mouse; format: functional, organism-based
[9] = target: C5a anaphylatoxin chemotactic receptor 1/2 (Homo sapiens) (UniProt P21730+Q9P296); experiment: Induction of C5a1-C5a2 heteromer formation (unknown origin) expressed in HEK293 cells at 100 uM by BRET assay; format: cell-based
[10] = target: T2, C5a anaphylatoxin chemotactic receptor 1 (Homo sapiens) (UniProt P21730); experiment: Partial agonist activity at human C5a1 receptor assessed as induction of beta-arrestin-2 recruitment by DiscoverX Path Hunter kit based assay
T2 sequence (whole entry): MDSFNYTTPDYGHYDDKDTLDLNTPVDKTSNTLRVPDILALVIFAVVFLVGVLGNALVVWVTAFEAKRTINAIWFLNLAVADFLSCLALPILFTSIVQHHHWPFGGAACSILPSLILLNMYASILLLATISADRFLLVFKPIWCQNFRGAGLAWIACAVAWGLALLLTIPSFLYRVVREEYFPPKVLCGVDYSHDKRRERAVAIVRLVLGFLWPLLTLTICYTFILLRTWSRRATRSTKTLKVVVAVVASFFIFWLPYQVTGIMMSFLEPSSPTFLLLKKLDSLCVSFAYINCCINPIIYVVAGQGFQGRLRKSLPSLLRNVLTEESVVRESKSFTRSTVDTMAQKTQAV

[11] = target: C5a anaphylatoxin chemotactic receptor 2 (Homo sapiens) (UniProt Q9P296); experiment: Displacement of [125I]-C5a from C5a2 receptor (unknown origin) expressed in Flp-In CHO cell membranes at 100 uM incubated for 1 hr by microbeta scintillation counting assay
[12] = target: C5a anaphylatoxin chemotactic receptor 2 (Homo sapiens) (UniProt Q9P296); experiment: Agonist activity at C5a2 receptor in LPS-induced IHMDM assessed as effect on […] release at 0.1 to 100 uM by ELISA
[13] = target: T2, C5a anaphylatoxin chemotactic receptor 1 (Homo sapiens); experiment: Agonist activity at C5a1 receptor (unknown origin) expressed in HEK293 cells assessed as induction of beta-arrestin-2 recruitment at 100 uM incubated for 1 hr by BRET assay; format: cell-based
[14] = target: C5a anaphylatoxin chemotactic receptor 2 (Homo sapiens) (UniProt Q9P296); experiment: Displacement of [125I]-C5a from C5a2 receptor (unknown origin) expressed in Flp-In CHO cell membranes incubated for 1 hr by microbeta scintillation counting assay
[15] = target: C5a anaphylatoxin chemotactic receptor 2 (Homo sapiens) (UniProt Q9P296); experiment: Partial agonist activity at C5a2 receptor (unknown origin) expressed in HEK293 cells assessed as induction of beta-arrestin-2 recruitment incubated for 1 hr by BRET assay; format: cell-based
[16] = target: C5a anaphylatoxin chemotactic receptor 2 (Homo sapiens) (UniProt Q9P296); experiment: Partial agonist activity at C5a2 receptor (unknown origin) expressed in HEK293 cells assessed as induction of beta-arrestin-2 recruitment incubated for 1 hr by BRET assay relative to C5a; format: cell-based
[17] = target: T2, C5a anaphylatoxin chemotactic receptor 1 (Homo sapiens); experiment: Displacement of [125I]-C5a from C5a1 receptor (unknown origin) expressed in Flp-In CHO cell membranes incubated for 1 hr by microbeta scintillation counting assay
[18] = target: C5a anaphylatoxin chemotactic receptor 2 (Homo sapiens) (UniProt Q9P296); experiment: Agonist activity at C5a2 receptor in HMDM assessed as inhibition of LPS-induced IL-6 release at 100 uM by ELISA

T1 sequence (P27361 whole entry, looked up): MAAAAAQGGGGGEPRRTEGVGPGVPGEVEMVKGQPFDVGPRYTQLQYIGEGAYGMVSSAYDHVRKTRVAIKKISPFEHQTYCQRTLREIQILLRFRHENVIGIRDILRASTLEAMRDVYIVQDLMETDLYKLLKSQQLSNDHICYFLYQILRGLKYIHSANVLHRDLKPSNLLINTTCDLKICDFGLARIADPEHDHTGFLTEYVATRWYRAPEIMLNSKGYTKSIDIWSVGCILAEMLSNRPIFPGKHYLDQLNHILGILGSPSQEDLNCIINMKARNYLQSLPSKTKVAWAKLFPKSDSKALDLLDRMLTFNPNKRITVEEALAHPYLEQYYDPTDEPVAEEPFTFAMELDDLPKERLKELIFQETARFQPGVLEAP
T1 sequence (P28482 whole entry, looked up): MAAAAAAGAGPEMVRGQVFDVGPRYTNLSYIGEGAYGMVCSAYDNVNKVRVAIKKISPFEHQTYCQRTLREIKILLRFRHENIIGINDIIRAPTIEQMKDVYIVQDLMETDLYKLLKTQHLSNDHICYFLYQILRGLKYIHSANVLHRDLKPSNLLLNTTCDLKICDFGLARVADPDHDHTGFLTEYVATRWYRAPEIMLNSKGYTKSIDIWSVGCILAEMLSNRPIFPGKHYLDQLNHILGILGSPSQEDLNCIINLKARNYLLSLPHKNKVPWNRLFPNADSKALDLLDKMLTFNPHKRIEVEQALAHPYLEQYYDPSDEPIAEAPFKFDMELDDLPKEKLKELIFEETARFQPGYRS
Chain of C5a anaphylatoxin chemotactic receptor 2 (Homo sapiens) (Q9P296 whole entry): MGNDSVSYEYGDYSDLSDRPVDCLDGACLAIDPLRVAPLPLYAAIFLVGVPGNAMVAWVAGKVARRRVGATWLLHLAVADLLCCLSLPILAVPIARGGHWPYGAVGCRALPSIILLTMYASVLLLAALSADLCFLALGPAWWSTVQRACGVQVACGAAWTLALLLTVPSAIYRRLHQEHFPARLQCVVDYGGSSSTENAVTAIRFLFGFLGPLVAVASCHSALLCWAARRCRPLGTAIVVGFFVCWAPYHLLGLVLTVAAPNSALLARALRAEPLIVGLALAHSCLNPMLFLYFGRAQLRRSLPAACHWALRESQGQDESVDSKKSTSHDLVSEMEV

| Substance | inhibition [1] | inhibition [2] | Activity [3] | inhibition [4] | inhibition [5] | Activity [6] | inhibition [7] | inhibition [8] | Activity [9] | Activity [10] | inhibition [11] | Activity [12] | Activity [13] | inhibition [14] | Activity [15] | Activity [16] | inhibition [17] | inhibition [18] |
| --- | --- | --- | --- | --- | --- | --- | --- | --- | --- | --- | --- | --- | --- | --- | --- | --- | --- | --- |
| Ac-RHYPYWR-OH | Active | inactive | Active | Active | inactive | inactive | inactive | Active | inactive | inactive | Active | inactive | inactive | Dose-dependent effect | Dose-dependent effect | 28.8% | Dose-dependent effect |  |
| Ac-LIRLWR-OH |  | inactive | Active | Active | inactive | inactive |  |  | inactive | inactive | Active | inactive | inactive | Dose-dependent effect | Dose-dependent effect | 52.9% | Dose-dependent effect | Active |
